This is an account of results in patent publication US9956268B2, “Neuropeptide Y treatment of autoimmune disease” (priority 2012, dated 2018).

Data set [1] deals with innate immune cytokines IL-1β or TNF-α. Particulars: oral, recent EAE experiments; cited from earlier work.
Data set [2] deals with active MOG peptide 35-55 immunized recipient mice. Kind of data set: Adoptive transfer of splenocytes from neuropeptide Y fed donors, clinical score of recipients. To be noted: placebo donors maximum 2.3. The format is in vivo, B6 mice.
Data set [3] deals with CNS lymphocytes stimulated with MOG peptide 35-55. Put plainly: Cytokine secretion, MOG re-stimulated CNS (spinal cord) lymphocytes of fed mice. The format is in vivo, B6 mice. How it is done:
(§1) Spleens and spinal cords (CNS) from each treatment group were aseptically removed and single cell suspensions prepared. In spinal cords, whole cords were passed through a cell strainer for CNS lymphocytes (B & D, Franklin Lakes, N.J.) and spun at 600 rpm several times to separate lymphocytes from CNS tissue. Splenocytes and cord lymphocytes from grouped saline fed or 10 mcg NPY fed mice were stimulated with 10 mcg MOG peptide 35-55×48 hours as previously described (5, 6). Murine cytokine responses were examined using a customized RayBio Mouse Cytokine Inflammatory Antibody Array including innate cytokine IL-1β and TNF-α, IL-17 (Teff), Th1-like (IL-2, IFN-γ), Th2-like cytokines (IL-4, IL-10, IL-13) and IL-12p70 using the RayBioantibody array Analysis tool application (RayBiotech, Inc, Norcross, Ga.). Results were grouped from mice fed saline or mice fed with NPY from grouped samples of two separate experiments (each sample performed in duplicate) and expressed as pg/ml±SEM (student t-test).

In data set [4] the test system is spinal cords of MOG peptide 35-55 immunized B6 mice. Put plainly: Spinal cord histology, inflammatory foci, actively fed mice. It is filed as in vivo. To be noted: thirty days following immunization, mock fed 11.6±0.5. How it is done:
Following sacrifice, spinal cords were removed and immersion fixed in 10% neutral buffered formalin for a minimum of two weeks. After fixation, cords were sectioned in entirety in the horizontal plane at approximately 3 mm intervals and processed to paraffin. Paraffin blocks were sectioned at 6-8 microns, and step sections were stained with hematoxylin and eosin and examined by light microscopy. Cord sections were evaluated independently for foci of inflammation by a blinded observer (SAB), without knowledge of the treatment status of the mice prior to sacrifice. Spinal cord tissue was sampled in an identical fashion for each animal and numbers of inflammatory foci per high-powered field (HPF) (>20 perivascular lymphocytes) in the parenchyma were counted.

Data set [5] can be described thus: Toxicity on extended oral administration. To be noted: orally administered to mice over an extended time period. It is filed as in vivo.
In data set [6] the test system is splenic lymphocytes stimulated with MOG peptide 35-55. Kind of data set: Cytokine secretion, MOG re-stimulated splenic lymphocytes of fed mice. The format is in vivo, B6 mice. The procedure:
as §1

Data set [7] deals with CNS lymphocytes of recipients stimulated with MOG peptide 35-55. Kind of data set: Cytokine secretion, CNS lymphocytes of recipients of donor cells. It is filed as in vivo, B6 mice. How it is done: (§2) Thirty days after inoculation and after peak score of clinical attack, all spleens from each treatment group were aseptically removed, single cell suspensions prepared, and red cell lysis performed by adding 2-3 ml sterile water to single cells for 5 seconds, and once the solution became transparent, adding AIM-V media to a 50 ml tube. Splenocytes from grouped saline (mock) fed, 1 μg or 10 μg neuropeptide Y fed mice were re-stimulated with MOG peptide 35-55 at a final concentration of 10 μg/ml for 48 hours in serum free medium (AIM-V medium, Gibco BRL, Grand Island, N.Y.) with 2×10^5 cells/[…] in triplicate in 96 well U-bottomed plates in a humidified 5% CO2/95% air incubator at 37° C. Following incubation, cells were collected, washed twice in PBS, and viability determined by standard Trypan blue exclusion. Viable concentrations were adjusted to 10^7 cells/0.5 ml Dulbecco's PBS immediately prior to i.p. injection into active MOG peptide 35-55 immunized recipient mice during ongoing disease (˜day 17 post immunization). Following administration of neuropeptide Y or adoptive transfer, clinical outcome is measured by comparing the difference between group mean active treatment and placebo group scores from day 17-30 post immunization.
as §1

Data set [8] concerns spinal cords of recipient mice. Kind of data set: Spinal cord histology, inflammatory foci, recipients of adoptively transferred cells. Particulars: thirteen days following adoptive transfer, placebo donors 7.48±0.28. It is filed as in vivo, B6 mice. The procedure: as §2, with “Viable concentrations were adjusted to 10^7 cells/0.5 ml Dulbecco's PBS immediately prior to i.p. injection into active MOG peptide 35-55 immunized recipient mice during ongoing disease (˜day 17 post immunization).” left out
Following sacrifice, spinal cords were removed and immersion fixed in 10% neutral buffered formalin for a minimum of two weeks. […] Cord sections were evaluated independently for foci of inflammation by a blinded observer (SAB), without knowledge of the treatment status of the mice prior to sacrifice. […]

Data set [9] has as its system actively immunized recipients (ongoing disease). Kind of data set: Adoptive transfer of in vitro neuropeptide Y treated MOG restimulated activated macrophages. The format is in vivo. Particulars: preliminary experiments.
The test system of data set [10] is MOG peptide 35-55 immunized B6 mice (experimental autoimmune encephalomyelitis). Kind of data set: Active EAE, ingested neuropeptide Y, clinical score. The format is in vivo. To be noted: vs placebo, p<0.001 ANOVA.
The test system of data set [11] is CD4+CD25+FoxP3+ Treg. Put plainly: Phenotypic analysis (FACS) of Treg frequency. The format is in vivo, B6 mice. To be noted: data not shown. How it is done: CD25 and FOXP3 expression by CD3+CD4+ lymphocytes was analyzed using the Beckman Coulter 10-Color Gallios Flow Cytometer and mouse regulatory T Cell Staining Kit with PE Foxp3 FJK-16s, FITC CD4, APC CD25 (eBioscience, San Diego, Calif.) following the manufacturer's instructions.

Data set [12] concerns splenocytes of recipients stimulated with MOG peptide 35-55. Put plainly: Cytokine secretion, splenic lymphocytes of recipients of donor cells. It is filed as in vivo, B6 mice. The procedure:
as §2, §1

The test system of data set [13] is experimental autoimmune encephalomyelitis. Particulars: parenteral, mice; cited from earlier work.
Where [14] appears, read: both fed groups (1 & 10 mcg) vs mock fed.
[15] abbreviates: CNS lymphocytes of recipients of fed donor cells vs mock.
The mark [16] stands for this setting: CNS lymphocytes of recipients, 10 mcg fed group vs mock.
The mark [17] stands for this setting: splenic lymphocytes of recipients of fed donor cells vs mock.

For the substance “Adrenocorticotropin hormone (SYSMEHFRWGKPVGKKRRPVKVYPNGAEDESAEAFPLEF; Corticotropin; UniProt P01189 138-176, looked up) [ACTH]”, in data set [1], the “reduction of innate immune cytokines IL-1β or TNF-α” value is given as “no reduction”.

With Neuropeptide Y, the figures for the “group clinical score at day 30” value in data set [2] (recipients of donor splenocytes from 1 mcg fed mice) and in data set [2] (recipients of donor splenocytes from 10 mcg fed mice) were 1.4 and 0.88, respectively. In addition, the “MOG induced IL-13 production” value is on record as “increased” in data set [3] (dosed vs mock dosed); “increased” in data set [6] (dosed vs mock dosed); “increased” in data set [7] (CNS lymphocytes of recipients, both dosed groups vs mock); “increased” in [12] (setting [17]). Also, the IFN-γ level entry in data set [3] (fed vs mock fed), in [6] (setting [14]), in data set [7] (setting [16]) and in data set [12] (setting [17]) was “significant decreases” each time. Moreover, the IL-1β level result in [3] (fed vs mock fed), in data set [6] (setting [14]), in [7] (setting [15]) and in data set [12] (setting [17]) was “significant decreases” in each case. The IL-2 level entry in [3] (fed vs mock fed) was “significant decreases”; in data set [6] (setting [14]) it was “significant decreases”; in data set [7] (setting [16]), “significant decreases”; in data set [12] (splenic lymphocytes of recipients, 10 mcg fed donor cells vs mock), “significant decreases”. For the same substance, the IL-12 level entry in data set [3] (fed vs mock fed) is on record as “significant decreases”; in [7] (CNS lymphocytes of recipients of fed donor cells vs mock, p<0.03 (FIG. 8 legend)), “decreased”; in data set [12] (setting [17]), “significant decreases”. Also, the “IL-17 (Teff) level” value in data set [3] (fed vs mock fed), in [7] (setting [15]) and in data set [12] (setting [17]) was “significant decreases” throughout. The TNF-α level entry in [3] (fed vs mock fed) is on record as “significant decreases”; in [6] (10 mcg dosed vs mock fed), “decreased”; in data set [7] (setting [16]), “significant decreases”; in data set [12] (setting [17]), “significant decreases”. For the same substance, the “mean group inflammatory score (inflammatory foci)” value in data set [4] (1 mcg fed group) is 6.4±0.16; in [4] (10 mcg fed group), 5.55±0.28. Besides, the toxicity result in data set [5] is recorded as “no detectable toxicity”. In data set [6] (10 mcg dosed vs mock fed), the IL-12p70 level entry is given as “decreased”. The “MOG induced IL-4 production” value in data set [6] (dosed vs mock dosed) is on record as “increased”. For the same substance, the “MOG induced IL-10 production” value in data set [6] (dosed vs mock dosed) is “increased”; in [7] (CNS lymphocytes of recipients, 1 mcg fed group vs mock), “increased”. Further, the “mean group inflammatory score (CNS inflammatory foci)” value worked out at 4.87±0.22 in [8] (recipients of 1 mcg fed donors) and 5.91±0.22 in [8] (recipients of 10 mcg fed donors). For the same substance, in [9], the “ongoing disease after adoptive transfer” value is “robust inhibition”. Moreover, the group clinical score entry in data set [10] (1 mcg fed (gavage) from day 17, days 17-30 post immunization) is “significant decreases in group clinical scores”; in [10] (10 mcg fed (gavage) from day 17, days 17-30 post immunization), “significant decreases in group clinical scores”. The “CD4+CD25+FoxP3+ cell frequency” value in [11] (actively fed mice vs mock fed) and in data set [11] (recipients of actively fed donor cells vs mock) was “no significant increase” in each case. The “induction of experimental autoimmune encephalomyelitis” value in data set [13] was “significantly inhibits”.
